PMC11457037 (Journal of medicinal chemistry, 2023)

Legend:
[1] = target: T1, EV-D68 2A^pro (Enterovirus D68, UniProt A0A097BW19); assay: FRET-based enzymatic assay; type: biochemical
[2] = tested on: EV-D68 US/MO/14-18947; assay: Plaque assay, EV-D68 US/MO/14-18947; type: cell-based, Enterovirus D68
[3] = target: T1, EV-D68 2A^pro; assay: Enzyme kinetic studies; type: biochemical; conditions: for Mode of inhibition of EV-D68 2A^pro: from fitting of kinetic curves
[4] = tested on: five strains of EV-D68; assay: Broad-spectrum antiviral activity, five strains of EV-D68 together; type: cell-based, Enterovirus D68
[5] = In vivo snap P.K. in mice; conditions: male C57BL/6J mice, 50 mg/kg i.p., 10% DMSO and 90% corn oil
[6] = In vivo toxicity, escalating i.p. doses
[7] = tested on: multiple strains of EV-D68; conditions: read-out: EC50 values, multiple strains of EV-D68; viral cytopathic effect assay and plaque assay; cited from earlier work
[8] = tested on: EV-D68 US/MO/14-18947; assay: CPE assay with EV-D68 US/MO/14-18947 in R.D. cells; type: cell-based, Enterovirus D68; conditions: read-out: Antiviral EC50; CPE assay, EV-D68 US/MO/14-18947, R.D. cells
[9] = tested on: R.D. cells; assay: Cytotoxicity, neutral red uptake method in R.D. cells; type: cell-based, Human; conditions: read-out: Cytotoxicity CC50

With `CCC(C)[C@H](NC(=O)[C@@H]1[C@H]2CCC[C@H]2CN1C(=O)[C@@H](NC(=O)CC12CC3CC(CC(C3)C1)C2)C(C)(C)C)C(=O)C(=O)NC1CC1` (stereo partly drawn) [Jun11756, (1S,3aR,6aS)-2-((S)-2-(2-((3S,5S,7S)-adamantan-1-yl)acetamido)-3,3-dimethylbutanoyl)-N-((3S,4S)-1-(cyclopropylamino)-4-methyl-1,2-dioxohexan-3-yl)octahydrocyclopenta[c]pyrrole-1-carboxamide] the “enzymatic inhibition, comparison in words” value [1] was “comparable enzymatic inhibition and antiviral activity as Jun8861” and the “fold improvement compared to telaprevir, plaque assay EC50” value [2] was 3 to 4 fold.
With `CC(C)(C)[C@H](NC(=O)CC12CC3CC(CC(C3)C1)C2)C(=O)N1C[C@@H]2CCC[C@@H]2[C@H]1C(=O)N[C@H](C(=O)C(=O)NC1CC1)C1CCCCC1` [Jun11762, (1S,3aR,6aS)-2-((S)-2-(2-((3S,5S,7S)-adamantan-1-yl)acetamido)-3,3-dimethylbutanoyl)-N-((S)-1-cyclohexyl-3-(cyclopropylamino)-2,3-dioxopropyl)octahydrocyclopenta[c]pyrrole-1-carboxamide] the “enzymatic inhibition, comparison in words” value [1] was “comparable enzymatic inhibition and antiviral activity as Jun8861”, the “Mode of inhibition of EV-D68 2A^pro” value [3] was “reversible binding” and the “fold improvement compared to telaprevir, plaque assay EC50” value [2] was 3 to 4 fold. For the same compound, the EC50 ([4]; Enterovirus D, EVD68, read-out: EC50 values over all five strains) was 43 to 269 nM, the “fold improvement compared to telaprevir, five strains” value ([4]; five EV-D68 strains) was 3.1-4.6 fold and the “time plasma concentration was above 4-fold of EC50 value (0.13 μM)” value [5] was “at least 5 h”. For the same compound, the “mortality and body weight” value ([6]; BALB/c mice, i.p. 100 to 400 mg/kg, monitored up to day 16) was “no mortality or significant body weight loss was observed” and the tolerated dose ([6]; female, BALB/c, mouse, in vivo, 16 days) was “up to 400 mg/kg”.
For `CCC[C@H](NC(=O)[C@@H]1[C@H]2CCC[C@H]2CN1C(=O)[C@@H](NC(=O)[C@@H](NC(=O)c1cnccn1)C1CCCCC1)C(C)(C)C)C(=O)C(=O)NC1CC1` [Telaprevir, telaprevir, reference compound], the kinact [3] is listed as 0.00146 s⁻¹, the “Mode of inhibition of EV-D68 2A^pro” value [3] is listed as “irreversible covalent inhibitor” and the EC50 [7] is listed as 400 to 1900 nM.
For “(1S,3aR,6aS)-N-((S)-1-(cyclopropylamino)-1,2-dioxohexan-3-yl)-2-((S)-3,3-dimethyl-2-(2-phenylacetamido)butanoyl)octahydrocyclopenta[c]pyrrole-1-carboxamide [Jun8861]”, the IC50 ([1]; read-out: Enzymatic inhibitory activity IC50, EV-D68 2A^pro) was 80 nM, the EC50 [8] was 160 nM and the CC50 [9] was 36200 nM. The “Mode of inhibition of EV-D68 2A^pro” value [3] was “reversible binding”.
